The results in this text go back to US11780833B2, “Emetine derivatives, prodrugs containing same, and methods of treating conditions using same” (HOWARD UNIVERSITY, priority 2011, dated 2023).

The structures appear in SMILES notation. Where two headings read alike, the source gives them in different places.

Assay type in all cases: cell-based
One assay concerns DU145 cells. Nature of the assay: cells. Particulars: Homo sapiens. The protocol: (§1) Studies were carried out on three prostate cancer cell lines: LNCaP, PC3, and DU145. […] There was not a significant difference in cytotoxicity of emetine between days 3 and 7. […] This increase is most likely due to the release of emetine from the dithiocarbamate salt over the time period. Further drug release studies at pH 5 confirmed about 45% release of emetine from the dithiocarbamate salt after 3-day incubation at this acidic pH maintained at 37° C., whereas release of emetine from the dithiocarbamate salt was not observed at physiological pH (e.g., about 7.4).
(§2) Various compounds prepared according to Examples 1-5 were studied in LNCaP, PC3, and DU145 cells.
(§3) Various compounds prepared according to Example 6 were studied in DU145 and PC3 cells. The IC50 was determined at 3, 5, and 7 days.

The test system of a further assay is PC3 cells. Kind of assay: cells. Particulars: Homo sapiens. As for the experimental part: as §1, §2, §3
A further assay has as its system LNCaP cells. Nature of the assay: Cytotoxicity in LNCaP prostate cancer cell line. To be noted: Homo sapiens, 168 h, read-out: IC50 after 7 days. As for the experimental part:
as §1, §2

Setting [1] is: DU-145, 168 h, read-out: IC50 after 7 days.
Setting [2] is: PC-3, 168 h, read-out: IC50 after 7 days.
Where [3] appears, read: DU-145, 72 h, read-out: IC50 in DU145.
Where [4] appears, read: DU-145, 120 h, read-out: IC50 in DU145.
Setting [5] is: DU-145, 168 h, read-out: IC50 in DU145.
Setting [6] is: PC-3, 72 h, read-out: IC50 in PC3.
[7] abbreviates: PC-3, 120 h, read-out: IC50 in PC3.
[8] abbreviates: PC-3, 168 h, read-out: IC50 in PC3.

Take `CCC1CN2CCc3cc(OC)c(OC)cc3C2CC1CC1c2cc(OC)c(OC)cc2CCN1C(=S)SCCN1C(=O)c2ccccc2C1=O` (stereo not shown) [Compound 4d]: the half-maximal inhibitory concentration (IC50) (usually the midpoint of a concentration-inhibition curve) in the assay with DU145 cells (setting [1]) came out at 3050 ± 70 nM; in the assay on PC3 cells (setting [2]), 2770 ± 60 nM.

In the case of `CCC1CN2CCc3cc(OC)c(OC)cc3C2CC1CC1c2cc(OC)c(OC)cc2CCN1C(=S)Nc1ccccc1` (stereo not shown) [Compound 11a], the IC50 in the assay with PC3 cells (setting [2]) is 484 ± 24.7 nM.

Regarding `CCC1CN2CCc3cc(OC)c(OC)cc3C2CC1CC1c2cc(OC)c(OC)cc2CCN1C(=S)NCc1ccccc1` (stereo not shown) [Compound 11e], the IC50 came to 2060 ± 438 nM with LNCaP cells, 1540 ± 254 nM in the assay with DU145 cells (setting [1]) and 6920 ± 71.1 nM in the assay on PC3 cells (setting [2]).

On to `CCC1CN2CCc3cc(OC)c(OC)cc3C2CC1CC1c2cc(OC)c(OC)cc2CCN1C(=S)Nc1ccc(Cl)cc1` (stereo not shown) [Compound 11c], for which the IC50 in the assay with PC3 cells (setting [2]) is 505 ± 15.9 nM.

In the case of `CCOC(=O)c1ccc(NC(=O)CSC(=S)N2CCc3cc(OC)c(OC)cc3C2CC2CC3c4cc(OC)c(OC)cc4CCN3CC2CC)cc1` (stereo not shown) [Compound 4c], the concentration for half-maximal inhibition (IC50) with LNCaP cells amounted to 1660 ± 564 nM; in the assay with DU145 cells (setting [1]) it was 2470 ± 263 nM; in the assay on PC3 cells (setting [2]) it was 2710 ± 192 nM.

With `CCC1CN2CCc3cc(OC)c(OC)cc3C2CC1CC1c2cc(OC)c(OC)cc2CCN1S(C)(=O)=O` (stereo not shown) [Compound 8b], the results for the 50% inhibitory concentration (IC50) in the assay with LNCaP cells and in the assay on PC3 cells (setting [2]) were 2100 ± 284 nM and 4010 ± 868 nM, respectively.

Turning to `CCC1CN2CCc3cc(OC)c(OC)cc3C2CC1CC1c2cc(OC)c(OC)cc2CCN1S(=O)(=O)c1ccccc1` (stereo not shown) [Compound 8e], the concentration for half-maximal inhibition (IC50) in the assay on LNCaP cells is 2260 ± 798 nM; in the assay with DU145 cells (setting [1]), more than 10000 nM; in the assay with PC3 cells (setting [2]), more than 10000 nM.

Turning to `CCC1CN2CCc3cc(OC)c(OC)cc3C2CC1CC1c2cc(OC)c(OC)cc2CCN1C(=S)NCCOC` (stereo not shown) [Compound 11n], in the assay on PC3 cells (setting [2]), the half-inhibitory concentration (IC50) is more than 10000 nM.

As for `CCC1CN2CCc3cc(OC)c(OC)cc3C2CC1CC1c2cc(OC)c(OC)cc2CCN1C(=O)/C=C(/CC(=O)O)C(=O)O` (stereo not shown) [Compound 15d2], the IC50 with DU145 cells (setting [3]) amounted to 2580 ± 190 nM; in the assay with DU145 cells (setting [4]), 2010 ± 73.4 nM; in the assay on DU145 cells (setting [5]), 1790 ± 134 nM; with PC3 cells (setting [6]) it was 3060 ± 110 nM; in the assay on PC3 cells (setting [7]), 2430 ± 118 nM; with PC3 cells (setting [8]), 2890 ± 123 nM.

In the case of `CCC1CN2CCc3cc(OC)c(OC)cc3C2CC1CC1c2cc(OC)c(OC)cc2CCN1C(=S)NCc1ccccc1Cl` (stereo not shown) [Compound 11h], the IC50 in the assay on DU145 cells (setting [1]) stood at 2370 ± 112 nM.

For the compound `CCC1CN2CCc3cc(OC)c(OC)cc3C2CC1CC1c2cc(OC)c(OC)cc2CCN1S(=O)(=O)c1ccc(C)cc1` (stereo not shown) [Compound 8a], the half-maximal inhibitory concentration (IC50) in the assay with DU145 cells (setting [1]) was 6240 ± 98 nM.

`CCC1CN2CCc3cc(OC)c(OC)cc3C2CC1CC1c2cc(OC)c(OC)cc2CCN1C(=S)NCc1ccc(F)cc1` (stereo not shown) [Compound 11i]: the IC50 in the assay with PC3 cells (setting [2]) is 5270 ± 372 nM.

For the compound `CCC1CN2CCc3cc(OC)c(OC)cc3C2CC1CC1c2cc(OC)c(OC)cc2CCN1S(=O)(=O)c1ccc(OC)cc1` (stereo not shown) [Compound 8f], in the assay with PC3 cells (setting [2]), the half-inhibitory concentration (IC50) stood at 6080 ± 105 nM.

As for `CCC1CN2CCc3cc(OC)c(OC)cc3C2CC1CC1c2cc(OC)c(OC)cc2CCN1C(=O)/C=C/C(=O)O` (stereo not shown) [Compound 15a2], the IC50 in the assay with DU145 cells (setting [3]) came out at 7960 ± 312 nM; in the assay on DU145 cells (setting [4]), 5730 ± 182 nM; with DU145 cells (setting [5]), 4230 ± 418 nM; in the assay on PC3 cells (setting [6]), 8390 ± 208 nM; in the assay on PC3 cells (setting [7]) it was 7058 ± 15.7 nM; with PC3 cells (setting [8]), 7710 ± 151 nM.

For `CCCCCCNC(=S)N1CCc2cc(OC)c(OC)cc2C1CC1CC2c3cc(OC)c(OC)cc3CCN2CC1CC` (stereo not shown) [Compound 11l], the half-inhibitory concentration (IC50) in the assay on LNCaP cells worked out at 1700 ± 144 nM; with PC3 cells (setting [2]), 2450 ± 323 nM.

With `CCC1CN2CCc3cc(OC)c(OC)cc3C2CC1CC1c2cc(OC)c(OC)cc2CCN1C(=S)Nc1ccc(OC)cc1` (stereo not shown) [Compound 11b], the 50% inhibitory concentration (IC50) in the assay on DU145 cells (setting [1]) was determined as 467 ± 25 nM.

Regarding `CCCCCCCCNC(=S)N1CCc2cc(OC)c(OC)cc2C1CC1CC2c3cc(OC)c(OC)cc3CCN2CC1CC` (stereo not shown) [Compound 11m], the IC50 was 1010 ± 249 nM with LNCaP cells and 1420 ± 336 nM with PC3 cells (setting [2]).
